In patent US20180161276A1, “TEMPERATURE-RESPONSIVE COMPOSITION, METHOD FOR FABRICATING, AND USE THEREOF” (NATIONAL TSING HUA UNIVERSITY, priority 2016, published 2018):

Molecular target: hemoglobin (Hb) (Homo sapiens, UniProt P68871+P69905)
Test: Anti-degradation ability of produced nitric oxide in the presence of hemoglobin
Assay type: physicochemical
Settings: in the presence of hemoglobin compared to absence of hemoglobin
Description: As mentioned above, the half-life of nitric oxide is quite short due to the reaction between nitric oxide and erythrocyte in plasma or ceruloplasmin. Please refer to FIG. 6A and FIG. 6B.
However, the half-life of nitric oxide, which is produced by using the temperature-responsive composition of the 1st embodiment in the present disclosure in the presence of hemoglobin, only has a degradation of 40% as shown in FIG. 6B. That is, it proves that applying the temperature-responsive composition of the present disclosure can extend the half-life of the produced nitric oxide.

Sequence of hemoglobin (Hb) (P69905 2-142 limits assumed): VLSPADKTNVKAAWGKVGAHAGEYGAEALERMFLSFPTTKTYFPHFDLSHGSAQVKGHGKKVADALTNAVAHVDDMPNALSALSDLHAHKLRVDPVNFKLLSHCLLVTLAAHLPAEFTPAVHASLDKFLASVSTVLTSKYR
Sequence of hemoglobin (Hb) (P68871 2-147 limits assumed): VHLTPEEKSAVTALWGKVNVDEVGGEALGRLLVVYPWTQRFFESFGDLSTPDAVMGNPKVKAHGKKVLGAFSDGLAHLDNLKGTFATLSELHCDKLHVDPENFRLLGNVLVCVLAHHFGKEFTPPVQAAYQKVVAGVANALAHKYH

Structure (SMILES): NCCN(CCN)/[N+]([O-])=N/O [diethylenetriaine-NONOate]
- degradation of the half-life of the produced nitric oxide: 85%
